# Read-outs that look alike come from different tables or passages of the source.
# Columns and labels:
# XIAP = XIAP (Homo sapiens, UniProt P98170); test: Immunoblotting (western blot) quantification of XIAP levels in MM.1S cells; conditions: MM1.S, 16 h
# cIAP1 = cIAP1 (Homo sapiens, UniProt Q13490); test: Immunoblotting (western blot) quantification of cIAP1 levels in MM.1S cells; conditions: MM1.S, 16 h
# cIAP2 = cIAP2 (Homo sapiens, UniProt Q13489); test: Immunoblotting (western blot) quantification of cIAP2 levels in MM.1S cells; conditions: MM1.S, 16 h
# cIAP2, sequence (Q13489 whole entry): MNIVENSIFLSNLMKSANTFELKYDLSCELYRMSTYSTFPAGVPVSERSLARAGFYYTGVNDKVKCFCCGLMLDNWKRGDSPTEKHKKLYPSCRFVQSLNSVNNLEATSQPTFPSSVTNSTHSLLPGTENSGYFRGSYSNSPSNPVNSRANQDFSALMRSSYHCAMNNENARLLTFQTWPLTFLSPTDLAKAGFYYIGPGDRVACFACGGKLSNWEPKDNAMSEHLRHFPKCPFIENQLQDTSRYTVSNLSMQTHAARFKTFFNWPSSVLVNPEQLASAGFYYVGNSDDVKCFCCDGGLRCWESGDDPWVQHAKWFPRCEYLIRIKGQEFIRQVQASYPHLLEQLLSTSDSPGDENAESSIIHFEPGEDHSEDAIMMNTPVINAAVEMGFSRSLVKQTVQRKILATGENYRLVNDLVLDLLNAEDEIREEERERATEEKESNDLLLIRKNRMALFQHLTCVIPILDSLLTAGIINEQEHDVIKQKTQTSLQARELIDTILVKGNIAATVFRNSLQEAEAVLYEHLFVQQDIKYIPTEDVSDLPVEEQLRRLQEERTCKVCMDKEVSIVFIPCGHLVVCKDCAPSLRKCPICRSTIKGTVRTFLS
# VHL30 = VHL30 (Homo sapiens, UniProt P40337); test: Immunoblotting (western blot) quantification of VHL30 levels in MM.1S cells; conditions: for remaining activity at 0.1 µM: MM1.S
# VHL30, sequence (P40337 whole entry): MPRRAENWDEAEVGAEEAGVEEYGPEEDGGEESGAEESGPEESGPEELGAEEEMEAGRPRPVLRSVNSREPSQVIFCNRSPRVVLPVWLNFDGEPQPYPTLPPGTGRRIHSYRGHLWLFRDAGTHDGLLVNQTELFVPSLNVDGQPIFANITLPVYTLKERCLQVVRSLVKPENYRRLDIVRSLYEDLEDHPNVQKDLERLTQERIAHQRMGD
# Procedure: To evaluate the capability of our panel of hetero-PROTACs for E3 ligase degradation, VHL19, VHL30, CRBN, cIAP1, cIAP2, and XIAP levels were quantified by western blot analyses. […] SDS-PAGE was performed, and proteins were then transferred onto PVDF membranes. Blotted membranes were blocked with 5% milk in Tris-buffered saline/Tween20 (TBST). Primary antibodies were diluted in 5% BSA in TBST, and incubations were performed overnight at 4 °C. Secondary HRP-conjugated antibodies diluted in 5% milk were incubated for 1 h at room temperature. Detection of proteins on PVDF was carried out using the WesternBright ECL HRP substrate or the WesternBright Sirius HRP substrate (Advansta, San Jose, USA) and imaged with LAS 4000× (Fujifilm). Membranes were subjected to 10 min incubation with Restore Western Blot Stripping Buffer (Thermo Fisher Scientific, Waltham, USA), followed by TBST washes. After brief re-activation with methanol, the membranes were blocked, and further probing of proteins was carried out.
# Quantification of blots was performed using ImageJ software (National Institutes of Health).
# [1] = system: IAPs (cIAP1, cIAP2, XIAP); test: Immunoblotting of IAPs in MM.1S cells, overall degradation profile, time course and washout; assay type: cell-based; conditions: 16 h, western blot, concentration (10 nM to 1 μM)
# Procedure: Next, we examined the persistence of IAP degradation in MM.1S cells after a single exposure to 1 μM of 9 and subsequent removal of the compound. […] The reliance on CRL2^VHL was assessed with a neddylation inhibitor MLN4924, which blocks the activity of CRLs (Figure S13A).
# [2] = Log D7.4 measurement by chromatographic (fast-gradient HPLC) method; conditions: pH 7.4
# Procedure: The system was calibrated by plotting the retention times of six different drugs (atenolol, metoprolol, labetalol, diltiazem, triphenylene, and permethrin) versus their literature-known log D7.4 in a calibration line (R^2 = 0.99). Subsequently, the mean retention times of the analytes were taken to calculate their log D7.4 values with the aid of the calibration line. At least two independent measurements of each analyte were performed.
# [3] = read-out: %remaining protein XIAP, MM.1S cells, 16 h treatment at 0.1 μM, normalized to loading control and DMSO
# [4] = read-out: %remaining protein cIAP1, MM.1S cells, 16 h treatment at 0.1 μM, normalized to loading control and DMSO
# [5] = read-out: %remaining protein cIAP2, MM.1S cells, 16 h treatment at 0.1 μM, normalized to loading control and DMSO
# [6] = 16 h, read-out: %remaining protein VHL30, MM.1S cells, 16 h treatment at 0.1 μM, normalized to loading control and DMSO
# [7] = read-out: %remaining protein XIAP
# [8] = read-out: %remaining protein cIAP1
# [9] = read-out: %remaining protein cIAP2
# [10] = 16 h, read-out: %remaining protein VHL30
# cIAP1, sequence (Q13490 whole entry): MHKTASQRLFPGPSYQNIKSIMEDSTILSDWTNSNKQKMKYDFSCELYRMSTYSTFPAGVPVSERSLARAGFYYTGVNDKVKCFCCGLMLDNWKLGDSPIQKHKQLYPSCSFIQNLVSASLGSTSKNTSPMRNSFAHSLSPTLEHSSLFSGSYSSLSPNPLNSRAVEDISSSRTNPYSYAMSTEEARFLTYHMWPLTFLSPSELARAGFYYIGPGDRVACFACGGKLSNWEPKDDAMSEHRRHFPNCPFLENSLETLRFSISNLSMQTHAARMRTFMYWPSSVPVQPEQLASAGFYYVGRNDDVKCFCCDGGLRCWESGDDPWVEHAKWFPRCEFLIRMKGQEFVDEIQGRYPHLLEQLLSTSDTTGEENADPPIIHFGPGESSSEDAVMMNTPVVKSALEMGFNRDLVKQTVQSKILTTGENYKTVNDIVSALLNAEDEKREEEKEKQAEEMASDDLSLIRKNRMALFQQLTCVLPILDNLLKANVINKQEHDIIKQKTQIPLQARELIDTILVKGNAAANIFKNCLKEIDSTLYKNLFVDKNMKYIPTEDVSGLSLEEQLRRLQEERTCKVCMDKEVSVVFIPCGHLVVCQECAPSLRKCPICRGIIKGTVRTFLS
# XIAP, sequence (P98170 whole entry): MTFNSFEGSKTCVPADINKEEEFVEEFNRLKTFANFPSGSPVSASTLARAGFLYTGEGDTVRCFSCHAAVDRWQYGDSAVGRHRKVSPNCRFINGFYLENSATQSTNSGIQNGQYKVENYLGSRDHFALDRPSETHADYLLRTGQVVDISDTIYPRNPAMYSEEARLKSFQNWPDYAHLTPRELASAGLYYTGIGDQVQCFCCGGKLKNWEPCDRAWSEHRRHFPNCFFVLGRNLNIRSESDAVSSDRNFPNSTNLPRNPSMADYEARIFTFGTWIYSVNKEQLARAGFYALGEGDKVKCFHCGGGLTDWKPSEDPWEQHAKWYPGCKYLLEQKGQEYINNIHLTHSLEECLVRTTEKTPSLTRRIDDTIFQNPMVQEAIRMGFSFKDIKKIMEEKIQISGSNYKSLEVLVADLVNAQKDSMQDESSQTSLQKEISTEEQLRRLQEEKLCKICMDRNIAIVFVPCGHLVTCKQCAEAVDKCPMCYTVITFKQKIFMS
remaining activity at 0.1 µM (XIAP; [3]),remaining activity at 0.1 µM (cIAP1; [4]),remaining activity at 0.1 µM (cIAP2; [5]),remaining activity at 0.1 µM (VHL30; [6]),Compound,IAP degradation profile (in words) [1],further results
4%,3%,36%,95%,"CN[C@@H](C)C(=O)N[C@H](C(=O)N1C[C@@H](Oc2cccc(OCCCCCCOCCCCCCOCCCCCC(=O)N[C@H](C(=O)N3C[C@H](O)C[C@H]3C(=O)NCc3ccc(-c4scnc4C)cc3)C(C)(C)C)c2)C[C@H]1C(=O)N[C@@H]1CCCc2ccccc21)C1CCCCC1 [PROTAC 8, (2S,4S)-1-((S)-2-Cyclohexyl-2-((S)-2-(methylamino)propanamido)acetyl)-4-(3-((6-((6-((6-(((S)-1-((2S,4R)-4-hydroxy-2-((4-(4-methylthiazol-5-yl)benzyl)carbamoyl)pyrrolidin-1-yl)-3,3-dimethyl-1-oxobutan-2-yl)amino)-6-oxohexyl)oxy)hexyl)oxy)hexyl)oxy)phenoxy)-N-((R)-1,2,3,4-tetrahydronaphthalen-1-yl)pyrrolidine-2-carboxamide]",–,–
66%,2%,27%,63%,"Cc1ncsc1-c1ccc([C@H](C)NC(=O)[C@@H]2C[C@@H](O)CN2C(=O)[C@@H](NC(=O)CCCCOc2cccc(O[C@H]3C[C@@H](C(=O)N[C@@H]4CCCc5ccccc54)N(C(=O)[C@@H](NC(=O)[C@H](C)N(C)C)C4CCCCC4)C3)c2)C(C)(C)C)cc1 [PROTAC 10b, (2S,4S)-1-((S)-2-Cyclohexyl-2-((S)-2-(dimethylamino)propanamido)acetyl)-4-(3-((5-(((S)-1-((2S,4R)-4-hydroxy-2-(((S)-1-(4-(4-methylthiazol-5-yl)phenyl)ethyl)carbamoyl)pyrrolidin-1-yl)-3,3-dimethyl-1-oxobutan-2-yl)amino)-5-oxopentyl)oxy)phenoxy)-N-((R)-1,2,3,4-tetrahydronaphthalen-1-yl)pyrrolidine-2-carboxamide]",cIAP1 and cIAP2 degradation,–
8%,6%,37%,41%,"CN[C@H](C)C(=O)N[C@H](C(=O)N1C[C@@H](Oc2cccc(OCCCCC(=O)N[C@H](C(=O)N3C[C@H](O)C[C@H]3C(=O)N[C@@H](C)c3ccc(-c4scnc4C)cc3)C(C)(C)C)c2)C[C@H]1C(=O)N[C@@H]1CCCc2ccccc21)C1CCCCC1 [PROTAC 10a, (2S,4S)-1-((S)-2-Cyclohexyl-2-((R)-2-(methylamino)propanamido)acetyl)-4-(3-((5-(((S)-1-((2S,4R)-4-hydroxy-2-(((S)-1-(4-(4-methylthiazol-5-yl)phenyl)ethyl)carbamoyl)pyrrolidin-1-yl)-3,3-dimethyl-1-oxobutan-2-yl)amino)-5-oxopentyl)oxy)phenoxy)-N-((R)-1,2,3,4-tetrahydronaphthalen-1-yl)pyrrolidine-2-carboxamide]",pan-IAP,–
88%,94%,> 99%,> 99%,"CC(=O)N(C)[C@@H](C)C(=O)N[C@H](C(=O)N1C[C@@H](Oc2cccc(OCCCCC(=O)N[C@H](C(=O)N3C[C@H](O)C[C@H]3C(=O)N[C@@H](C)c3ccc(-c4scnc4C)cc3)C(C)(C)C)c2)C[C@H]1C(=O)N[C@@H]1CCCc2ccccc21)C1CCCCC1 [PROTAC 10c, (2S,4S)-1-((S)-2-Cyclohexyl-2-((S)-2-(N-methylacetamido)propanamido)acetyl)-4-(3-((5-(((S)-1-((2S,4R)-4-hydroxy-2-(((S)-1-(4-(4-methylthiazol-5-yl)phenyl)ethyl)carbamoyl)pyrrolidin-1-yl)-3,3-dimethyl-1-oxobutan-2-yl)amino)-5-oxopentyl)oxy)phenoxy)-N-((R)-1,2,3,4-tetrahydronaphthalen-1-yl)pyrrolidine-2-carboxamide]",inactivated PROTACs,–
2%,2%,37%,37%,"CN[C@@H](C)C(=O)N[C@H](C(=O)N1C[C@@H](Oc2cccc(OCCOCCOCCOCC(=O)N[C@H](C(=O)N3C[C@H](O)C[C@H]3C(=O)NCc3ccc(-c4scnc4C)cc3)C(C)(C)C)c2)C[C@H]1C(=O)N[C@@H]1CCCc2ccccc21)C1CCCCC1 [PROTAC 5, (2S,4R)-1-((S)-2-(tert-Butyl)-14-(3-(((3S,5S)-1-((S)-2-cyclohexyl-2-((S)-2-(methylamino)propanamido)acetyl)-5-(((R)-1,2,3,4-tetrahydronaphthalen-1-yl)carbamoyl)pyrrolidin-3-yl)oxy)phenoxy)-4-oxo-6,9,12-trioxa-3-azatetradecanoyl)-4-hydroxy-N-(4-(4-methylthiazol-5-yl)benzyl)pyrrolidine-2-carboxamide]",–,–

# More lines, now with the values behind:
Compound,remaining activity at 0.1 µM (XIAP; [3]),remaining activity at 0.1 µM (cIAP1; [4]),remaining activity at 0.1 µM (cIAP2; [5]),remaining activity at 0.1 µM (VHL30; [6]),IAP degradation profile (in words) [1],further results
"Cc1ncsc1-c1ccc(CNC(=O)[C@@H]2C[C@@H](O)CN2C(=O)[C@@H](NC(=O)COCCOCCOCCOCCOCCOCC(=O)N[C@H](C(=O)N2C[C@H](O)C[C@H]2C(=O)NCc2ccc(-c3scnc3C)cc2)C(C)(C)C)C(C)(C)C)cc1 [CM11, reference compound]",–,–,–,–,–,"VHL30 degradation (in words) (VHL30; MM.1S cells, western blot): strong and dose-dependent VHL30 degradation"
"CN[C@@H](C)C(=O)N[C@H](C(=O)N1C[C@@H](Oc2cccc(OCCCCCCOCCCCCCOCCCCCCNc3cccc4c3C(=O)N(C3CCC(=O)N(C)C3=O)C4=O)c2)C[C@H]1C(=O)N[C@@H]1CCCc2ccccc21)C1CCCCC1 (stereo partly drawn) [PROTAC 29, (2S,4S)-1-((S)-2-Cyclohexyl-2-((S)-2-(methylamino)propanamido)acetyl)-4-(3-((6-((6-((6-((2-(1-methyl-2,6-dioxopiperidin-3-yl)-1,3-dioxoisoindolin-4-yl)amino)hexyl)oxy)hexyl)oxy)hexyl)oxy)phenoxy)-N-((R)-1,2,3,4-tetrahydronaphthalen-1-yl)pyrrolidine-2-carboxamide]",–,–,–,–,–,chromatographic logD [2]: 7.4
"CN[C@@H](C)C(=O)N[C@H](C(=O)N1C[C@@H](Oc2cccc(OCCCCOCCCC(=O)N[C@H](C(=O)N3C[C@H](O)C[C@H]3C(=O)NCc3ccc(-c4scnc4C)cc3)C(C)(C)C)c2)C[C@H]1C(=O)N[C@@H]1CCCc2ccccc21)C1CCCCC1 [PROTAC 3, (2S,4S)-1-((S)-2-Cyclohexyl-2-((S)-2-(methylamino)propanamido)acetyl)-4-(3-(4-(4-(((S)-1-((2S,4R)-4-hydroxy-2-((4-(4-methylthiazol-5-yl)benzyl)carbamoyl)pyrrolidin-1-yl)-3,3-dimethyl-1-oxobutan-2-yl)amino)-4-oxobutoxy)butoxy)phenoxy)-N-((R)-1,2,3,4-tetrahydronaphthalen-1-yl)pyrrolidine-2-carboxamide]",4%,3%,30%,29%,–,"VHL30 protein degradation (VHL30; MM.1S cells, 16 h, 0.1 μM, quantified by western blot): 71%"
"CN[C@@H](C)C(=O)N[C@H](C(=O)N1C[C@@H](Oc2cccc(OCCCCCCOCCCCCOCCCCC(=O)N[C@H](C(=O)N3C[C@H](O)C[C@H]3C(=O)NCc3ccc(-c4scnc4C)cc3)C(C)(C)C)c2)C[C@H]1C(=O)N[C@@H]1CCCc2ccccc21)C1CCCCC1 [PROTAC 7, (2S,4S)-1-((S)-2-Cyclohexyl-2-((S)-2-(methylamino)propanamido)acetyl)-4-(3-((6-((5-((5-(((S)-1-((2S,4R)-4-hydroxy-2-((4-(4-methylthiazol-5-yl)benzyl)carbamoyl)pyrrolidin-1-yl)-3,3-dimethyl-1-oxobutan-2-yl)amino)-5-oxopentyl)oxy)pentyl)oxy)hexyl)oxy)phenoxy)-N-((R)-1,2,3,4-tetrahydronaphthalen-1-yl)pyrrolidine-2-carboxamide]",–,–,–,–,–,remaining activity at 0.1 µM (XIAP; [7]): 3%; remaining activity at 0.1 µM (cIAP1; [8]): 2%; remaining activity at 0.1 µM (cIAP2; [9]): 32%; remaining activity at 0.1 µM (VHL30; [10]): 83%
"CN[C@@H](C)C(=O)N[C@H](C(=O)N1C[C@@H](Oc2cccc(OCCCCCCOCCCCCOCCCCCOc3cc(-c4scnc4C)ccc3CNC(=O)[C@@H]3C[C@@H](O)CN3C(=O)[C@H](C(C)C)N3Cc4ccccc4C3=O)c2)C[C@H]1C(=O)N[C@@H]1CCCc2ccccc21)C1CCCCC1 [PROTAC 18, (2S,4S)-1-((S)-2-Cyclohexyl-2-((S)-2-(methylamino)propanamido)acetyl)-4-(3-((6-((5-((5-(2-(((2S,4R)-4-hydroxy-1-((S)-3-methyl-2-(1-oxoisoindolin-2-yl)butanoyl)pyrrolidine-2-carboxamido)methyl)-5-(4-methylthiazol-5-yl)phenoxy)pentyl)oxy)pentyl)oxy)hexyl)oxy)phenoxy)-N-((R)-1,2,3,4-tetrahydronaphthalen-1-yl)pyrrolidine-2-carboxamide]",–,–,–,–,–,chromatographic logD [2]: 5.6; remaining activity at 0.1 µM (XIAP; [7]): 6%; remaining activity at 0.1 µM (cIAP1; [8]): 5%; remaining activity at 0.1 µM (cIAP2; [9]): 37%; remaining activity at 0.1 µM (VHL30; [10]): 88%

# — publication PMC10108347, “Heterobifunctional Ligase Recruiters Enable pan-Degradation of Inhibitor of Apoptosis Proteins” (Journal of Medicinal Chemistry, 2023)
